Several values for one entry are separate records, joined by “and”; a condition that tells them apart may be missing. Identical values can stand only once. Residues, ends and D or L forms follow the SMILES beside them. *: point of attachment. Cbz = O=C(OCc1ccccc1)*; NHPh = c1ccc(N*)cc1; OtBu = CC(C)(C)O*
Tested on: donor-derived DRG neurons
Assay: Whole-cell current-clamp, human donor-derived DRG neurons
Type: cell-based
Text: Human donor (hDRG) neurons. Dorsal root ganglia were recovered from consented, de-identified organ and tissue donors at the University of Cincinnati Medical Center following previously described protocols (57, 58). Recovered tissues were transported in oxygenated, ice-cold N-methyl-D-glucamine (NMDG) artificial […] (aCSF, mM): 93 NMDG, 2.5 KCl, 1.25 NaH2PO4, 30 NaHCO3, 20 HEPES, 25 Glucose, 5 Ascorbic acid, 2 Thiourea, 3 Na+ pyruvate, 10 MgSO4, 0.5 CaCl2, 12 N-acetylcysteine, adjusted to pH 7.4 with HCl). hDRGs were isolated from connective tissue, fat, roots, and nerves and then minced into small 1-3 mm pieces which were enzymatically treated with warmed papain (45U) followed by collagenase (4.5 mg/200µl) each for 40 minutes at 37 °C, 5% CO2 in HBSS with 5 mM HEPES (Hanks’ Balanced Salt Solution with 4-2 (2-hydrozyethyl)-1-piperazineethananessulfonic acid; Gibco). Neurons were dissociated by trituration and incubated in warmed Neurobasal A-based DRG media (with penicillin/streptomycin, B27 supplement (Gibco), fetal bovine serum (FBS), and GlutaMAX (Gibco, cat # 35050061), as previously described. Dissociated DRG suspension was plated onto poly-d-lysine (0.01 mg/ml, Sigma) and collagen (1 mg/ml, Sigma) coated coverslips and incubated 2 days. […]
following salts: extracellular (mM): 140 NaCl, 3 KCl, 1 MgCl2, 1 CaCl2, 10 HEPES, 10 glucose, pH 7.3; intracellular (mM): 130 CH3O3 SCs, 1 EGTA, 10 NaCl, 10 HEPES, pH 7.3. Membrane capacitance and series resistance were estimated by the dial settings on the amplifier and compensated for electronically by 70–80%.
Data was acquired at 20 kHz and filtered at 5 kHz before digitization and storage. All experimental parameters were controlled by Clampex 9.2 software (Molecular Devices) and interfaced to the electrophysiological equipment using a Digidata 1300 analog–digital interface (Molecular Devices). […]
μM PW164 or ZL192 in the extracellular solution. The recording solution consisted of the following salts: extracellular (mM): 130 NaCl, 3 KCl, 30 TEA, 0.1 CdCl2 1 MgCl2, 1 CaCl2, 10 HEPES, 10 glucose, pH 7.3; intracellular (mM): 140 CsF, 1.1 EGTA, 10 NaCl, 10 HEPES, pH 7.3.
Human donor DRG neurons: Coverslips were transferred to a recording chamber and bathed in extracellular solution (mM): 145 NaCl, 3 KCl, 2.5 CaCl2, 1.2 MgCl2, 10 HEPES, 7 glucose, 0.05 CdCl2 adjusted to pH 7.4 with NaOH, with a flow rate of 1-2 ml/min. Borosilicate glass pipettes with the resistance of 1.5 to 2.5 MΩ were made using a P-1000 micropipette puller (Sutter Instrument, Novato, CA, USA). The intracellular solution contained (mM): 130 K-gluconate, 5 KCl, 5 NaCl, 2 MgCl2, 0.3 Ethylene glycol-bis(2-aminoethylether)- NNN’N’-tetraacetic acid (EGTA), 10 HEPES, 2 Na ATP, adjusted to pH 7.3 with KOH and 294 mOsm with sucrose. Coverslips were pre-incubated in 50 µM PW164 or ZL192 or 0.1% DMSO vehicle for 1 hour before recording. Recordings were obtained on MultiClamp 700B and Digidata 1550A (Molecular Devices) and sampled […]
at 20 kHz. Neurons were investigated if resting membrane potential was below -45 mV. Neurons were held under current clamp, and membrane properties and action potential discharge were assessed as previously described […]
Human Dorsal Root Ganglia Procurement
Human dorsal root ganglia (DRGs) procurement procedures were performed in accordance with the Institutional Review Boards at the University of Texas at Dallas. DRGs were procured from organ donors through a collaboration with the Southwest Transplant Alliance (STA). DRGs were frozen in powdered dry ice at the time of extraction and then stored in a -80°C freezer until use. Details on tissue procurement procedures, quality metrics, and tissue preparation can be found on protocols.io doi:10.17504/protocols.io.kqdg32qr1v25/v1 (2024).
The medical history of each donor was provided by the STA and is a summary of information from hospital records and family members. Donor demographics, condition (non-diabetic vs diabetic painful neuropathy […]

[1] = 50 µM, 1 hour preincubation, relative to control

SMILES | action potential firing [1] | rheobase to fire an action potential [1] | Suppl Fig. S16A, 1x (single cells) | Suppl Fig. S16A, 3x (3x, single cells)
COC(=O)[C@@H](NC(=O)[C@H](CCC(=O)OC(C)(C)C)NC(=O)[C@H](CC(C)C)NC(=O)[C@@H]1CCCN1C(=O)OCc1ccccc1)C(C)C [PW164] (Cbz-PLE(OtBu)V-OMe) | reduced action potential firing | increased rheobase | 1 | 
CC(=O)N[C@@H](Cc1ccccc1)C(=O)N[C@@H](CC(C)C)C(=O)N1CCC[C@H]1C(=O)N[C@@H](CCCCN)C(=O)Nc1ccccc1 [ZL192] (Ac-FLPK-NHPh) |  | decreased rheobase | 1 | 2 and 1

Reference: article PMC12259270, “Sensory neuron–expressed FGF13 controls nociceptive signaling in diabetic neuropathy models” (The Journal of Clinical Investigation, 2025)
